# Experimental data reported in PubChem BioAssay AID732 (Emory University Molecular Libraries Screening Center, 2007).
# Several values for one entry are separate records, joined by “and”; a condition that tells them apart may be missing. Equal entries are not always repeated. Activity calls are given as the source filed them. How the calls were made is not given here.
# Tested on: in vivo angiogenesis, blood vessel count
# Assay: reduction of blood vessel formation in vivo – HTS, in vivo study (AID 732);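 further: zebrafish embryos dosed at one day post fertilization; 0% = reference inhibitor and 100% = plate mean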
# Conditions: stronger effect = lower value;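 tested at 30 µM in the well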
row,SMILES,vessel count % control
1,O=C(NCC1CCCCN1)c1cc(OCC(F)(F)F)ccc1OCC(F)(F)F (stereo not given),127% (inactive)
2,C[C@]12CCC(=O)C=C1CC[C@@H]1[C@@H]2C(=O)C[C@@]2(C)[C@H]1CC[C@]2(O)C(=O)CO,126% (inactive)
3,CC(N)(Cc1ccc(O)c(O)c1)C(=O)O (stereo not given),108% (inactive)
4,Clc1cccc(Cl)c1NC1=NCCN1,121% (inactive)
5,CNc1ncnc2c1ncn2[C@H]1C[C@H](OP(=O)(O)O)[C@@H](COP(=O)(O)O)O1,93.2% (inactive)
6,NCCc1c[nH]c2ccc(O)cc12,84.5% (inactive)
7,Cc1ccccc1N1CCN(S(=O)(=O)C[C@]23CCC(CC2NC(=O)[C@@H](N)CCS(C)(=O)=O)C3(C)C)CC1 (stereo not given in full),107% (inactive)
8,O=c1[nH]c(=O)c2nc3ccccc3nc2[nH]1,129% (inactive)
9,NCCC(=O)NCCc1cnc[nH]1,84.2% (inactive)
10,COc1ccc2[nH]cc(CCN(C)C)c2c1,83.1% (inactive)
11,CC(=O)SCC[N+](C)(C)C,99% (inactive)
12,COc1ccccc1OCC(O)CN1CCN(CC(=O)Nc2c(C)cccc2C)CC1 (stereo not given),97.9% (inactive)
13,NCCNS(=O)(=O)c1cccc2cnccc12,98.2% (inactive)
14,C[C@]12CCC3C(CC[C@H]4C[C@H](O)CC[C@]34C)C1CC[C@@H]2C(=O)CO (stereo not given in full),105% (inactive)
15,O=C(O)c1ccccc1Nc1cccc(OCc2ccc3ccccc3n2)c1,85.3% (inactive)
16,CC(C)C[C@H]1C(=O)N2CCC[C@H]2[C@]2(O)O[C@](NC(=O)[C@@H]3C=C4c5cccc6[nH]c(Br)c(c56)C[C@H]4N(C)C3)(C(C)C)C(=O)N12,110% (inactive)
17,CC(C)NC[C@H](O)c1ccc(O)c(O)c1,98.1% (inactive) and 72.7% (inactive)
18,CCCCCCCCCCCCCC(=O)O[C@@H]1[C@@H](C)[C@@]2(O)[C@@H](C=C(CO)C[C@@]3(O)C(=O)C(C)=C[C@@H]23)C2C(C)(C)[C@@]21OC(C)=O (stereo not given in full),0% (inactive)
19,CC(C)c1ccc2c(c1)c(SC(C)(C)C)c(CC(C)(C)C(=O)O)n2Cc1ccc(Cl)cc1,99.4% (inactive)
20,CC(=O)OCC1=C(C(=O)O)N2C(=O)[C@@H](NC(=O)CSc3ccncc3)[C@H]2SC1,97.3% (inactive)
21,CC(=O)c1ccc(S(=O)(=O)NC(=O)NC2CCCCC2)cc1,84.8% (inactive)
22,O=C(O)CCc1nc(-c2ccccc2)c(-c2ccccc2)o1,73.7% (inactive)
23,Cc1sc2ccccc2c1CC1=NCCN1,92.5% (inactive)
24,O=C1NCN(c2ccccc2)C12CCN(CCCC(c1ccc(F)cc1)c1ccc(F)cc1)CC2,84.4% (inactive)
25,O=C1CC2(CCCC2)CC(=O)N1CCCCN1CCN(c2ncccn2)CC1,114% (inactive)

row,SMILES,vessel count % control
1,Cc1ccc(S(=O)(=O)N[C@@H](CCCCN)C(=O)CCl)cc1,133% (inactive)
2,Clc1ccc2c(c1)C(N1CCNCC1)=Nc1ccccc1O2,98.2% (inactive)
3,Oc1ccc(C2CNCCc3c2cc(O)c(O)c3Cl)cc1 (stereo not given),117% (inactive)
4,CCCCNC(=O)NS(=O)(=O)c1ccc(C)cc1,87.6% (inactive)
5,C[C@@](Cc1ccc(O)c(O)c1)(NN)C(=O)O,94.6% (inactive)
6,O=c1n(CCCN2CCN(c3cccc(Cl)c3)CC2)nc2ccccn12,88% (inactive)
7,N[C@@H](Cc1ccc(O)c(I)c1)C(=O)O,108% (inactive)
8,CC(NC(C)(C)C)C(=O)c1cccc(Cl)c1 (stereo not given),71.1% (inactive)
9,O=c1onc2cnc3ccccc3n12,95.4% (inactive)
10,COc1ccc2c(c1)c(CC(=O)O)c(C)n2C(=O)c1ccc(Cl)cc1,112% (inactive)
11,O=C1NCN(c2ccccc2)C12CCN(CC1COc3ccccc3O1)CC2 (stereo not given),94.6% (inactive)
12,Nc1ncnc2c1c(-c1ccc(Oc3ccccc3)cc1)cn2C1CCCC1,77.9% (inactive)
13,O=C(O)CC1CCCc2ccccc2C1O (stereo not given),137% (inactive)
14,CSc1nc(N)c2ncn([C@@H]3O[C@H](COP(=O)(O)OP(=O)(O)OP(=O)(O)O)[C@H](O)C3O)c2n1 (stereo not given in full),105% (inactive)
15,NC(C(=O)O)c1cc(=O)[nH]o1 (stereo not given),134% (inactive)
16,CN(C)CCCCSC(=N)N,105% (inactive)
17,O=C(Nc1ccc([N+](=O)[O-])cc1Cl)c1cc(Cl)ccc1O,0% (inactive)
18,C[C@]12CCC(=O)C=C1CC[C@@H]1[C@@H]2[C@@H](O)C[C@@]2(C)[C@H]1CC[C@]2(O)C(=O)CO,102% (inactive)
19,CN1CCN(CCCN2c3ccccc3Sc3ccc(Cl)cc32)CC1,68.9% (inactive)
20,C[C@H]1c2cccc(O)c2C(O)=C2C(=O)[C@]3(O)C(O)=C(C(N)=O)C(=O)[C@@H](N(C)C)[C@@H]3[C@@H](O)[C@@H]21,91.8% (inactive)
21,O=c1ccc2ccc(O)c(O)c2o1,121% (inactive)
22,CCCN(CCc1ccccc1)C1CCc2c(O)cccc2C1 (stereo not given),88.9% (inactive)
23,CC(C)NC[C@H](O)COc1ccc(CC(N)=O)cc1,86.6% (inactive)
24,C=CCN1CCc2c(cc(O)c(O)c2Br)[C@@H](c2ccccc2)C1,85% (inactive)
25,Fc1ccc(C(c2ccc(F)cc2)N2CCN(C/C=C/c3ccccc3)CC2)cc1,91.5% (inactive)

row,SMILES,vessel count % control
1,c1cnc2c(c1)ccc1cccnc12,0% (inactive)
2,CC(N)(Cc1ccc(O)cc1)C(=O)O (stereo not given),105% (inactive)
3,CN(C)c1cc2c(Nc3ccc4c(cnn4Cc4ccccc4)c3)ncnc2cn1,84.7% (inactive)
4,CCC(NC(C)C)C(O)c1ccc(O)c(O)c1 (stereo not given),85.9% (inactive)
5,CC(CN1c2ccccc2Sc2ccccc21)N(C)C (stereo not given),97.7% (inactive)
6,O=C(O)CCCC[C@@H]1CCSS1,100% (inactive)
7,O=C1NCC2(CCN(CCc3ccccc3)CC2)O1,110% (inactive)
8,C[C@]12CC[C@@H]3c4ccc(O)cc4CC[C@H]3[C@@H]1CC[C@@H]2O,104% (inactive)
9,Brc1c(NC2=NCCN2)ccc2nccnc12,104% (inactive)
10,N[C@@H](Cc1ccc(F)cc1)C(=O)O,108% (inactive)
11,CCCN1CCC[C@@H]2Cc3nc(N)ncc3C[C@H]21,107% (inactive)
12,C=CCn1c(=O)c2c(nc(-c3ccc(S(=O)(=O)O)cc3)n2C)n(C)c1=O,92% (inactive)
13,N.N.N.N.N.N.N.N.N.N.N.N.N.N.O.O.[Cl-].[Cl-].[Cl-].[Cl-].[Cl-].[Cl-].[Ru+4].[Ru+5].[Ru+5],123% (inactive)
14,O=C(c1ccccc1)c1ccc2n1CCC2C(=O)O (stereo not given),79.7% (inactive)
15,COC(=O)c1cc2c(cn1)[nH]c1ccccc12,92.7% (inactive)
16,NC1C=CC=C(C(=O)O)C1 (stereo not given),114% (inactive)
17,CN(C)[C@@H]1C(=O)C(C(N)=O)=C(O)[C@@]2(O)C(=O)C3=C(O)c4c(O)ccc(Cl)c4[C@@H](O)[C@H]3C[C@@H]12,87.7% (inactive)
18,O=c1[nH]c2ccccc2n1CCCN1CCC(n2c(=O)[nH]c3cc(Cl)ccc32)CC1,83.8% (inactive)
19,COc1[nH]c2ccc(F)cc2c1C(=O)OCC1CCN(CCNS(C)(=O)=O)CC1,99.6% (inactive)
20,CCC1(c2ccccc2)C(=O)NCNC1=O,91.4% (inactive)
21,CN1CCN2c3ccccc3Cc3ccccc3C2C1 (stereo not given),72.3% (inactive)
22,c1ccc2c(c1)[I+]c1ccccc1-2,112% (inactive)
23,O=C(O)c1cc(=O)c2ccc(Cl)cc2[nH]1,110% (inactive)
24,N[C@@H](Cn1ccc(=O)[nH]c1=O)C(=O)O,102% (inactive)
25,COc1ccc2c(c1)c(CC(=O)O)c(C)n2C(=O)c1ccccc1,116% (inactive)

row,SMILES,vessel count % control
1,COC(=O)Nc1nc2ccc(C(=O)c3cccs3)cc2[nH]1,150% (inactive)
2,CCCN(CCC)C(=O)C(CCC(=O)O)NC(=O)c1ccccc1 (stereo not given),103% (inactive)
3,CC1CN(S(=O)(=O)c2cccc3cnccc23)CCN1 (stereo not given),97.8% (inactive)
4,NC(=O)CN1CC(O)CC1=O (stereo not given),90.1% (inactive)
5,c1ccc(C2CC2)c(OCC2=NCCN2)c1,104% (inactive)
6,Oc1ccc(-c2nc(-c3ccc(F)cc3)c(-c3ccncc3)[nH]2)cc1,97.9% (inactive)
7,Cc1cn[nH]c1,87.3% (inactive)
8,NC(N)=NCc1cccc(I)c1,98.4% (inactive)
9,NC1CCN(c2cccc(Cl)n2)CC1,91.5% (inactive)
10,NC(=O)N1c2ccccc2C=Cc2ccccc21,96.4% (inactive)
11,C1CCc2nnnn2CC1,79% (inactive)
12,NC(=O)CC[C@H](N)C(=O)O,104% (inactive)
13,CCCCNc1ccc(C(=O)OCCN(C)C)cc1,100% (inactive)
14,O=C(O)c1cc2cc(Cc3cccnc3)ccc2o1,100% (inactive)
15,Cc1cc(NC(=O)Nc2ccc3c(ccn3C)c2)sn1,112% (inactive)
16,CC(Cc1ccc(OCC(=O)O)cc1)NCC(O)c1cccc(Cl)c1 (stereo not given),97.7% (inactive)
17,NC1(C(=O)O)CC1,127% (inactive)
18,COc1ccccc1NC(=O)Nc1nc(-c2cccnc2)nc2ccccc12,85.6% (inactive)
19,CCCN1CCC[C@@H](c2cccc(O)c2)C1,91.2% (inactive)
20,CC(COc1ccccc1)N(CCCl)Cc1ccccc1 (stereo not given),139% (inactive)
21,O=C(O)c1cc[c]([Hg][Cl])cc1,105% (inactive)
22,Cc1cccc(C(=O)NCN2CCN(c3ccccc3C#N)CC2)c1,110% (inactive)
23,CNCCCC1c2ccccc2C=Cc2ccccc21,96% (inactive)
24,CC(C)=CCC/C(C)=C/CC/C(C)=C/CSc1ccccc1C(=O)O,78.4% (inactive)
25,Nc1nc(N)c2nc(CNc3ccc(C(=O)NC(CCC(=O)O)C(=O)O)cc3)cnc2n1 (stereo not given),99.6% (inactive)
